Test results published in US12679878B2, “CRF2 receptor agonists and their use in therapy” (SANOFI, priority 2020, dated 2026).
Starred links: 1 amine or outer side, 2 acyl side, 3 side chain; linkers in the order of their positions; H or OH if unused. Non-standard residues stand in square brackets, D forms with d. Residues, ends and D or L forms follow the SMILES beside them. Groups on a side chain read outwards from the residue. No end group written: not given here. *: point of attachment. C18 diacid = O=C(O)CCCCCCCCCCCCCCCCC(=O)*; γGlu = O=C(O)[C@H](CCC(=O)[*:2])N[*:1]; Palmitoyl = CCCCCCCCCCCCCCCC(=O)*; AEEA = NCCOCCOCC(=O)O; Aib = CC(C)(N)C(=O)O

T1: human CRF2α receptor (Homo sapiens, UniProt Q13324)
T1 construct: expressed in transfected cells; host or cells: TeloHEAC
T1 sequence (Q13324 1-411): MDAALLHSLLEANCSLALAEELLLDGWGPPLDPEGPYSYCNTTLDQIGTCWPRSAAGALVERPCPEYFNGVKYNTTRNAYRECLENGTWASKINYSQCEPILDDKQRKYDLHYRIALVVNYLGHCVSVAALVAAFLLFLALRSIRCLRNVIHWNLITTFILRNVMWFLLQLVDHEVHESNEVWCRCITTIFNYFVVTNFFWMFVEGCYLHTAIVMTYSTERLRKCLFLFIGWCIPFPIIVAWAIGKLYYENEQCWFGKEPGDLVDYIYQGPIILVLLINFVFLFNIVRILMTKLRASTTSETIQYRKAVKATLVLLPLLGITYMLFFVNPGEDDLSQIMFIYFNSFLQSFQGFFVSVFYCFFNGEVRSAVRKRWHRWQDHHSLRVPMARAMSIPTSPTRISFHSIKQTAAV

T2: CRF1R receptor (Homo sapiens, UniProt P34998)
T2 construct: host or cells: CHO-K1 clone 2
T2 sequence (P34998 24-415): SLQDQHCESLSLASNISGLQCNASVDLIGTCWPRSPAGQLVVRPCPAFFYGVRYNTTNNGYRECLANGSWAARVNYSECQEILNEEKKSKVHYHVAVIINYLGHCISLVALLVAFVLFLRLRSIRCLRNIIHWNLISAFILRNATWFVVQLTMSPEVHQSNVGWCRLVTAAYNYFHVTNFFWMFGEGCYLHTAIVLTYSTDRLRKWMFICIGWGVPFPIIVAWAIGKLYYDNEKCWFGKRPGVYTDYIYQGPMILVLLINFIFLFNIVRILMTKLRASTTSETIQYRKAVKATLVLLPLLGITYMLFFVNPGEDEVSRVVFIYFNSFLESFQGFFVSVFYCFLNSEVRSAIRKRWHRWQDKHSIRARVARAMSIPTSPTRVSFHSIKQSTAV

T3: CRF1R receptor (anti-target) (UniProt P34998 24-415, limits assumed)
T3 sequence (looked up): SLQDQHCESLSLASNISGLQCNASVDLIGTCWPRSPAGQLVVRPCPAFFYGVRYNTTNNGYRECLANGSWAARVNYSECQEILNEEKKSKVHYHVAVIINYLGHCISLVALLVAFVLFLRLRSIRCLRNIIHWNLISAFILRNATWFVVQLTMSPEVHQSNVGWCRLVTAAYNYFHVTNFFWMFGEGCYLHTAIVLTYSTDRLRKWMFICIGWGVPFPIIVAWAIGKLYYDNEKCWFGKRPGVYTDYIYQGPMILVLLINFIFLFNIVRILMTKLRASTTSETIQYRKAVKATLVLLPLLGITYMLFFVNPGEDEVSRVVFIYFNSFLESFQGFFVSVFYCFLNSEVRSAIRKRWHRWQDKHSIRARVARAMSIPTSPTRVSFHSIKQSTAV


Columns and labels:
human CRF2α receptor = biological target: T1, human CRF2α receptor; assay: cAMP agonism at human CRF2 α receptor in TeloHEAC cells (Example 7); format: cell-based; conditions: cAMP HTRF, TeloHEAC cells stably expressing human CRF2 α, 0% HSA; read-out: EC50 [nM], 0% HSA
Summary of the method: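 Percent activation was referenced to 1000 nM UCN2 (100%), and EC50 values taken as concentrations giving half of maximal response. The read-out was a homogeneous time-resolved fluorescence cAMP kit, fluorescence ratio 665/620 nm. Thawed cells (2000/well) saw compound for 30 min at RT in buffer with 2 mM IBMX and 0%/0.1% HSA.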

rat CRF2R α receptor = assay: cAMP agonism at rat CRF2R α receptor in A7R5 rat aortic smooth muscle cells (Example 8); format: cell-based; conditions: cAMP HTRF, A7R5 rat aortic smooth muscle cell line, 0% HSA
Summary of the method: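 Potency (EC50) is the concentration reaching half-maximal activation, with responses scaled so that 1000 nM urocortin 2 equals 100%. Intracellular cAMP was quantified by homogeneous time-resolved fluorescence at 665/620 nm, 1 h after lysis-buffer reagents. Compound stimulation lasted 30 min at room temperature on 2000 IBMX-treated (2 mM) cells per well in HEPES-buffered HBSS.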

CRF1R receptor = biological target: T2, CRF1R receptor; assay: cAMP activity at anti-target CRF1R, CRF1R-overexpression CHO cell line (Example 9); format: cell-based; conditions: CRF1R-overexpression CHO cell line
Summary of the method: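 Using thawed CRF1R-overexpressing CHO cells at 2000 per well, compound is applied for 30 min at RT in HBSS/HEPES buffer with IBMX. Cellular cAMP content is determined via HTRF, and percent activity is calculated against 1000 nM UCN2 defined as 100%.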

[1] = Solubility in buffer systems by UPLC-UV (Example 13); format: physicochemical; conditions: pH 7.4, Solubility in Buffer C [mg/ml]
Summary of the method: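 Quantitation used UV peak area from UPLC of the 1:10-diluted supernatant, set against a reference-compound standard curve with extinction coefficients adjusted for amino acid sequence.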

[2] = Pharmacokinetic properties in rats, i.v. or s.c. (Example 16); format: in vivo, SD rat; conditions: male, plasma, Rat; for AUC(0-t) / Cmax / half-life: Sprague-Dawley (SD)
Protocol: The pharmacokinetic properties of exemplary peptides SEQ ID NO: 35 and SEQ ID NO: 24 were assessed in mice and rats.
The test compound was administered in a suitable buffer system (PBS buffer solution at pH 7.4, or DPBS solution) at concentrations of 0.05, 0.1, 0.5 or 1 mg/ml depending on the dose, species and administration volume. Female C57BI/6 mice and male SD rate were dosed 0.1 mg/kg or 0.3 mg/kg intravenously or subcutaneously. The animals were sacrificed, and blood samples were collected after 0.08, 0.25, 0.5, 1, 2, 4, 8, 24, 32, and 48 hours post-intravenous administration and 0.25, 0.5, 1, 2, 4, 8, 24, 32, and 48 hours post-subcutaneous administration, respectively. Plasma samples were analysed after protein precipitation via liquid chromatography mass spectrometry (LC/MS). Pharmacokinetic parameters and half-life were calculated using Phoenix-WinNonlin 8.1 using a non-compartmental model and linear trapezoidal interpolation calculation.

[3] = biological target: T3, CRF1R receptor (anti-target); assay: cell-based or functional assay
[4] = biological target: human corticotropin-releasing factor 2α (CRF2α receptor) (human), Q13324; assay: cell-based or functional assay
[5] = biological target: human corticotropin-releasing factor 2α receptor (CRF2α receptor) (human), Q13324; assay: cell-based or functional assay

Row | Molecule | EC50 (human CRF2α receptor) | EC50 (rat CRF2R α receptor) | EC50 (CRF1R receptor; 0% HSA) | Emax (CRF1R receptor; read-out: Emax (%)) | solubility at 1 h [1] | clearance ([2]; SD, iv, 0.1 mg/kg i.v., read-out: CI (converted)) | bioavailability ([2]; SD, sc, 0.3 mg/kg s.c.) | AUC(0-t) ([2]; iv, 0.1 mg/kg i.v.) | Cmax ([2]; iv, 0.1 mg/kg i.v.) | half-life ([2]; iv, 0.1 mg/kg i.v.) | AUC(0-t) ([2]; sc, 0.3 mg/kg s.c.) | Cmax ([2]; sc, 0.3 mg/kg s.c.) | half-life ([2]; sc, 0.3 mg/kg s.c.) | CRF1/CRF2 ratio (of EC50) [3] | CRF1 EC50 (cAMP, HTRF) [3] | EC50 [nM], 0% HSA (cAMP, HTRF) [4] | CRF2 EC50 (cAMP, HTRF) [5]
1 | CC[C@H](C)[C@H](N)C(=O)N[C@H](C(=O)N[C@@H](CC(C)C)C(=O)N[C@@H](CO)C(=O)N[C@@H](CC(C)C)C(=O)N[C@@H](CC(=O)O)C(=O)N[C@@H](C(=O)N1CCC[C@H]1C(=O)N[C@H](C(=O)N[C@@H](CCCCN)C(=O)N[C@@H](CC(C)C)C(=O)N[C@@H](CCCCNC(=O)COCCOCCNC(=O)COCCOCCNC(=O)CC[C@H](NC(=O)CCCCCCCCCCCCCCCCC(=O)O)C(=O)O)C(=O)N[C@@H](CCC(N)=O)C(=O)N[C@@H](CCCCN)C(=O)N[C@@H](CC(C)C)C(=O)N[C@@H](CC(C)C)C(=O)N[C@@H](CCCCN)C(=O)N[C@@H](CCC(N)=O)C(=O)N[C@@H](CCC(=O)O)C(=O)N[C@@H](CCCNC(=N)N)C(=O)N[C@@H](CCC(N)=O)C(=O)N[C@@H](CCCNC(=N)N)C(=O)N[C@@H](CCCCN)C(=O)N[C@@H](CCC(=O)O)C(=O)N[C@@H](CCCNC(=N)N)C(=O)N[C@@H](CCC(=O)O)C(=O)N[C@@H](CCC(N)=O)C(=O)N[C@@H](C)C(=O)N[C@@H](CCC(=O)O)C(=O)N[C@@H](CCCCN)C(=O)N[C@@H](CC(N)=O)C(=O)N[C@@H](CCCCN)C(=O)N[C@@H](CCCNC(=N)N)C(=O)N[C@H](C(=O)N[C@@H](CC(C)C)C(=O)N[C@@H](CCC(=O)O)C(=O)N[C@@H](CCCNC(=N)N)C(=O)N[C@H](C(N)=O)C(C)C)[C@@H](C)CC)[C@@H](C)O)C(C)C)C(C)C [compound 24] (H-IVLSLD[dV]PTKLK([AEEA-AEEA-γGlu-C18 diacid])QKLLKQERQRKEREQAEKNKRILERV-NH2; N-terminus assumed) | 6.95 nM | 4.94 nM | > 1000 nM | 1.48% | > 10.1 mg/mL | 0.43 mL/min/kg | 24% | 3790 ng·h/mL | 1480 ng/mL | 289 min | 2610 ng·h/mL | 171 ng/mL | 331 min | – | – | – | –
2 | IVLSLD[dV]PIKLK([γGlu-Palmitoyl])QILLKQARQK[Aib]QRAQAEKNKRILERV-NH2 (N-terminus assumed; SMILES CCCCCCCCCCCCCCCC(=O)N[C@@H](CCC(=O)NCCCC[C@H](NC(=O)[C@H](CC(C)C)NC(=O)[C@H](CCCCN)NC(=O)[C@@H](NC(=O)[C@@H]1CCCN1C(=O)[C@H](NC(=O)[C@H](CC(=O)O)NC(=O)[C@H](CC(C)C)NC(=O)[C@H](CO)NC(=O)[C@H](CC(C)C)NC(=O)[C@@H](NC(=O)[C@@H](N)[C@@H](C)CC)C(C)C)C(C)C)[C@@H](C)CC)C(=O)N[C@@H](CCC(N)=O)C(=O)N[C@H](C(=O)N[C@@H](CC(C)C)C(=O)N[C@@H](CC(C)C)C(=O)N[C@@H](CCCCN)C(=O)N[C@@H](CCC(N)=O)C(=O)N[C@@H](C)C(=O)N[C@@H](CCCNC(=N)N)C(=O)N[C@@H](CCC(N)=O)C(=O)N[C@@H](CCCCN)C(=O)NC(C)(C)C(=O)N[C@@H](CCC(N)=O)C(=O)N[C@@H](CCCNC(=N)N)C(=O)N[C@@H](C)C(=O)N[C@@H](CCC(N)=O)C(=O)N[C@@H](C)C(=O)N[C@@H](CCC(=O)O)C(=O)N[C@@H](CCCCN)C(=O)N[C@@H](CC(N)=O)C(=O)N[C@@H](CCCCN)C(=O)N[C@@H](CCCNC(=N)N)C(=O)N[C@H](C(=O)N[C@@H](CC(C)C)C(=O)N[C@@H](CCC(=O)O)C(=O)N[C@@H](CCCNC(=N)N)C(=O)N[C@H](C(N)=O)C(C)C)[C@@H](C)CC)[C@@H](C)CC)C(=O)O) [peptide of SEQ ID NO: 219] | – | – | – | – | – | – | – | – | – | – | – | – | – | 2 | 13.5 nM | 5.98 nM | 5.98 nM
3 | IVLSLD[dV]PIGLK([γGlu-Palmitoyl])QILLKQERQKK[Aib]RQQAETNKRILERV-NH2 (N-terminus assumed; SMILES CCCCCCCCCCCCCCCC(=O)N[C@@H](CCC(=O)NCCCC[C@H](NC(=O)[C@H](CC(C)C)NC(=O)CNC(=O)[C@@H](NC(=O)[C@@H]1CCCN1C(=O)[C@H](NC(=O)[C@H](CC(=O)O)NC(=O)[C@H](CC(C)C)NC(=O)[C@H](CO)NC(=O)[C@H](CC(C)C)NC(=O)[C@@H](NC(=O)[C@@H](N)[C@@H](C)CC)C(C)C)C(C)C)[C@@H](C)CC)C(=O)N[C@@H](CCC(N)=O)C(=O)N[C@H](C(=O)N[C@@H](CC(C)C)C(=O)N[C@@H](CC(C)C)C(=O)N[C@@H](CCCCN)C(=O)N[C@@H](CCC(N)=O)C(=O)N[C@@H](CCC(=O)O)C(=O)N[C@@H](CCCNC(=N)N)C(=O)N[C@@H](CCC(N)=O)C(=O)N[C@@H](CCCCN)C(=O)N[C@@H](CCCCN)C(=O)NC(C)(C)C(=O)N[C@@H](CCCNC(=N)N)C(=O)N[C@@H](CCC(N)=O)C(=O)N[C@@H](CCC(N)=O)C(=O)N[C@@H](C)C(=O)N[C@@H](CCC(=O)O)C(=O)N[C@H](C(=O)N[C@@H](CC(N)=O)C(=O)N[C@@H](CCCCN)C(=O)N[C@@H](CCCNC(=N)N)C(=O)N[C@H](C(=O)N[C@@H](CC(C)C)C(=O)N[C@@H](CCC(=O)O)C(=O)N[C@@H](CCCNC(=N)N)C(=O)N[C@H](C(N)=O)C(C)C)[C@@H](C)CC)[C@@H](C)O)[C@@H](C)CC)C(=O)O) [peptide of SEQ ID NO: 220] | – | – | – | – | – | – | – | – | – | – | – | – | – | 6 | 8.91 nM | 1.48 nM | 1.48 nM
